Measured values published in ChEMBL document CHEMBL1201862, “PubChem BioAssay data set” (2004).
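96-well plates; 48 h exposure; 5 concentrations. Endpoints by linear interpolation between flanking doses. Not reached: highest tested concentration assigned. GI50 marks 50% less growth.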 Active and inactive are the calls of the source. Rule as the data show it: active = GI50 up to about 1.1 µM and inactive = higher.

Assays:
Assay in all cases: growth of human tumour cells (NCI), 48 h
ACHN = system: ACHN
CCRF-CEM = system: CCRF-CEM
COLO 205 = system: COLO 205
HCT-116 = system: HCT-116
HOP-62 = system: HOP-62
HT-29 = system: HT-29
K562 = system: K562
M14 = system: M14
MCF7 = system: MCF7
NCI-H226 = system: NCI-H226
NCI/ADR-RES = system: NCI/ADR-RES
RPMI-8226 = system: RPMI-8226
RXF 393 = system: RXF 393
SF-268 = system: SF-268
SF-295 = system: SF-295
SNB-75 = system: SNB-75
SW-620 = system: SW-620
TK-10 = system: TK-10
A549 = system: A549
LOX IMVI = system: LOX IMVI

Row | Structure (SMILES) | GI50 (ACHN) | GI50 (CCRF-CEM) | GI50 (COLO 205) | GI50 (HCT-116) | GI50 (HOP-62) | GI50 (HT-29) | GI50 (K562) | GI50 (M14) | GI50 (MCF7) | GI50 (NCI-H226) | GI50 (NCI/ADR-RES) | GI50 (RPMI-8226) | GI50 (RXF 393) | GI50 (SF-268) | GI50 (SF-295) | GI50 (SNB-75) | GI50 (SW-620) | GI50 (TK-10) | GI50 (A549) | GI50 (LOX IMVI)
1 | c1csc(-c2ccc(-c3ccc(-c4ccc(-c5cccs5)s4)s3)s2)c1 | > 100 µM (inactive) | 26.5 µM (inactive) | > 100 µM (inactive) | > 100 µM (inactive) | 34 µM (inactive) | > 100 µM (inactive) | 47.1 µM (inactive) | 26.9 µM (inactive) | 8.36 µM (inactive) | > 100 µM (inactive) | > 100 µM (inactive) | > 100 µM (inactive) | 56.5 µM (inactive) | > 100 µM (inactive) | 40.6 µM (inactive) | > 100 µM (inactive) | > 100 µM (inactive) | > 100 µM (inactive) |  | 
2 | CCNC(=S)NNC(=O)c1ccccc1Nc1ccccc1C(=O)NNC(=S)NCC | > 100 µM (inactive) | > 100 µM (inactive) | > 100 µM (inactive) | > 100 µM (inactive) | > 100 µM (inactive) | > 100 µM (inactive) | > 100 µM (inactive) | > 100 µM (inactive) | > 100 µM (inactive) | > 100 µM (inactive) | > 100 µM (inactive) | > 100 µM (inactive) |  |  | > 100 µM (inactive) | > 100 µM (inactive) | > 100 µM (inactive) | > 100 µM (inactive) | > 100 µM (inactive) | > 100 µM (inactive)
3 | Cc1[nH]c2ncn3ncnc3c2c1Cc1ccccc1 | > 100 µM (inactive) | > 100 µM (inactive) | > 100 µM (inactive) | > 100 µM (inactive) | > 100 µM (inactive) | > 100 µM (inactive) |  | > 100 µM (inactive) | > 100 µM (inactive) | > 100 µM (inactive) | > 100 µM (inactive) |  | 50 µM (inactive) | > 100 µM (inactive) | > 100 µM (inactive) | > 100 µM (inactive) | > 100 µM (inactive) | > 100 µM (inactive) | > 100 µM (inactive) | 
4 | CC(O)CCCCC(O)CCC[C@H](O)[C@H]1CCC([C@H]2CCC([C@@H](O)CCCCCCCCCCCCC3=C[C@H](C)OC3=O)O2)O1 (some centres not stated) | 10.2 µM (inactive) | 9.38 µM (inactive) | 11.1 µM (inactive) | 0.0667 µM (active) | 10.6 µM (inactive) | 10.7 µM (inactive) |  | 11.4 µM (inactive) | 5.25 µM (inactive) | 9.59 µM (inactive) | 2.44 µM (inactive) |  | 12.1 µM (inactive) | 11.6 µM (inactive) | 9.29 µM (inactive) | 9.12 µM (inactive) | 12.8 µM (inactive) | 9.48 µM (inactive) | 7.94 µM (inactive) | 
5 | O=C(Nc1ccc(N=C=S)cc1Cl)c1cc(Br)cc(Br)c1O | 27 µM (inactive) |  | 27.2 µM (inactive) | 16.3 µM (inactive) | 30.6 µM (inactive) | 19.8 µM (inactive) | 32.8 µM (inactive) | 33.7 µM (inactive) | 31.5 µM (inactive) | 18.5 µM (inactive) | 24.2 µM (inactive) |  | 43.9 µM (inactive) | 36.9 µM (inactive) | 31.1 µM (inactive) | 31.1 µM (inactive) | 27.3 µM (inactive) | 27.9 µM (inactive) | 25.8 µM (inactive) | 
6 | O=C(O)/C=C/c1ccc(Oc2ccccc2C(=O)O)o1 | > 10 µM (inactive) | > 10 µM (inactive) | > 10 µM (inactive) | > 10 µM (inactive) | > 10 µM (inactive) | > 10 µM (inactive) | > 10 µM (inactive) | > 10 µM (inactive) | > 10 µM (inactive) |  | > 10 µM (inactive) | > 10 µM (inactive) |  | > 10 µM (inactive) | > 10 µM (inactive) | > 10 µM (inactive) | > 10 µM (inactive) | > 10 µM (inactive) | > 10 µM (inactive) | > 10 µM (inactive)
7 | COc1cc(C2c3cc4c(cc3C(=O)C3CCC(=O)N32)OCO4)cc(OC)c1O (configuration not stated) | > 50 µM (inactive) | > 50 µM (inactive) | > 50 µM (inactive) | > 50 µM (inactive) | > 50 µM (inactive) | > 50 µM (inactive) | > 50 µM (inactive) | > 50 µM (inactive) | > 50 µM (inactive) | > 50 µM (inactive) | > 50 µM (inactive) | > 50 µM (inactive) | > 50 µM (inactive) |  | > 50 µM (inactive) | > 50 µM (inactive) | > 50 µM (inactive) |  | > 50 µM (inactive) | 
8 | C[C@]12CC[C@@H]3c4ccc(OP(=O)(O)O)cc4CC[C@H]3[C@@H]1CCC2=O | > 100 µM (inactive) | 27.6 µM (inactive) | > 100 µM (inactive) | 55.1 µM (inactive) | > 100 µM (inactive) | 63.1 µM (inactive) | 46.3 µM (inactive) | 61.4 µM (inactive) | > 100 µM (inactive) |  | 56 µM (inactive) | 44.4 µM (inactive) | 56.9 µM (inactive) | > 100 µM (inactive) | 71.8 µM (inactive) | 68.9 µM (inactive) | 63.7 µM (inactive) | > 100 µM (inactive) | 90.2 µM (inactive) | 95.9 µM (inactive)
9 | O=C1CSc2nnc(CCCCCCCCc3nnc4n3NC(=O)CS4)n2N1 | > 100 µM (inactive) | 15.3 µM (inactive) | > 100 µM (inactive) | 91.2 µM (inactive) | 46 µM (inactive) | 23.1 µM (inactive) | 37.8 µM (inactive) | > 100 µM (inactive) | 45.6 µM (inactive) | > 100 µM (inactive) | > 100 µM (inactive) | 28.6 µM (inactive) |  | 43.3 µM (inactive) | 85.1 µM (inactive) | 32.1 µM (inactive) | 73.6 µM (inactive) |  | > 100 µM (inactive) | 
10 | CC(C)C(=O)/C=C/S/C=C/C(=O)C(C)C | 2.24 µM (inactive) |  | 2.94 µM (inactive) | 1.69 µM (inactive) | 21.2 µM (inactive) | 4.09 µM (inactive) |  | 3.92 µM (inactive) | 23 µM (inactive) | 7 µM (inactive) | 2.83 µM (inactive) |  | 4.54 µM (inactive) | 26.2 µM (inactive) | 34.9 µM (inactive) | 45.1 µM (inactive) | 3.33 µM (inactive) | > 100 µM (inactive) | 32.3 µM (inactive) | 3.31 µM (inactive)
11 | O=C1/C(=C/c2ccc([N+](=O)[O-])cc2)Oc2cc(O)ccc21 | 25.4 µM (inactive) | 31 µM (inactive) | > 10 µM (inactive) | 26.2 µM (inactive) | 31.2 µM (inactive) |  | 17.9 µM (inactive) | 43.1 µM (inactive) | 27.2 µM (inactive) | 13.2 µM (inactive) | 28.8 µM (inactive) | 22.5 µM (inactive) | 45 µM (inactive) | 61 µM (inactive) | 37.8 µM (inactive) | 32.2 µM (inactive) | 41 µM (inactive) | 27.4 µM (inactive) | 28.8 µM (inactive) | 
12 | CC1(C)O[C@@H](CP(c2ccc3ccccc3c2)c2ccc3ccccc3c2)[C@H](CP(c2ccc3ccccc3c2)c2ccc3ccccc3c2)O1 | > 100 µM (inactive) | > 100 µM (inactive) | > 100 µM (inactive) | > 100 µM (inactive) | > 100 µM (inactive) | 85.5 µM (inactive) | 77.1 µM (inactive) | > 100 µM (inactive) | 72.3 µM (inactive) | 72.6 µM (inactive) | > 100 µM (inactive) |  | > 100 µM (inactive) | > 100 µM (inactive) | > 100 µM (inactive) | > 100 µM (inactive) | > 100 µM (inactive) | > 100 µM (inactive) | > 100 µM (inactive) | > 100 µM (inactive)
13 | c1ccc(Nc2nnc(CCCCCCCCc3nnc(Nc4ccccc4)o3)o2)cc1 | > 100 µM (inactive) | > 100 µM (inactive) | > 100 µM (inactive) | > 100 µM (inactive) | > 100 µM (inactive) | > 100 µM (inactive) | > 100 µM (inactive) | > 100 µM (inactive) | > 100 µM (inactive) | > 100 µM (inactive) | > 100 µM (inactive) |  | > 100 µM (inactive) | > 100 µM (inactive) | > 100 µM (inactive) | > 100 µM (inactive) | > 100 µM (inactive) | > 100 µM (inactive) | > 100 µM (inactive) | > 100 µM (inactive)
14 | O=C(O)c1ccc(Nc2nc3ccccc3nc2-c2cccs2)cc1 | 98.9 µM (inactive) | > 100 µM (inactive) | > 100 µM (inactive) | 94 µM (inactive) | > 100 µM (inactive) | 66.4 µM (inactive) | 45.5 µM (inactive) |  |  | > 100 µM (inactive) | 39.1 µM (inactive) | 68.1 µM (inactive) | 39.4 µM (inactive) | 82.2 µM (inactive) | > 100 µM (inactive) | 66.1 µM (inactive) | > 100 µM (inactive) | > 100 µM (inactive) | 44.2 µM (inactive) | 35.1 µM (inactive)
15 | O=C(O)C[n+]1cn(NC(=O)Cc2ccccc2)cn1 | > 10 µM (inactive) | > 10 µM (inactive) | > 10 µM (inactive) | > 10 µM (inactive) | > 10 µM (inactive) | > 10 µM (inactive) | > 10 µM (inactive) | > 10 µM (inactive) | > 10 µM (inactive) |  | > 10 µM (inactive) | 0.501 µM (active) |  | > 10 µM (inactive) | > 10 µM (inactive) | > 10 µM (inactive) | > 10 µM (inactive) | > 10 µM (inactive) | > 10 µM (inactive) | > 10 µM (inactive)
